Assay results published in US11905530B2, “Cell encapsulation device comprising a pancreatic progenitor cell population” (ViaCyte, Inc., priority 2009, dated 2024).

Columns and labels:
[1] = system: mice implanted with iPEC grafts; assay: Glucose stimulated insulin secretion (GSIS): human C-peptide in serum of mice implanted with iPEC grafts; type: in vivo
Excerpt: (§1) To determine whether the change in the composition of PEC and iPEC populations affected in vivo function, PEC and iPEC grafts from most of the experiments described in Table 11 were transplanted into mice substantially as previously described herein and in Applicant's other patent and non-patent publications, including Schulz et al. (2012) and Kroon et al (2008), supra and U.S. Pat. Nos. 7,534,608; 7,695,965; 7,993,920 and 8,278,106, supra. Briefly, PEC and iPEC populations were wholly encapsulated with a […] semi-permeable cell encapsulation device, some of which included micro perforations. The devices were manufactured by Applicant and are described in detail in U.S. Pat. No. 8,278,106, entitled ENCAPSULATION OF PANCREATIC CELLS FROM HUMAN PLURIPOTENT STEM CELLS, filed Nov. 13, 2009, the disclosure of which is incorporated herein by reference in its entirety. Glucose stimulated insulin secretion (GSIS) assays were performed starting from about 56 days post-implant. Blood was collected prior to (fasting) and at combinations of 30 and/or 60 minutes after glucose administration. Graft function was assessed by measuring human C-peptide concentrations in the serum in response to glucose administration.
The amount of human C-peptide released into the serum is indicative of the amount of insulin released. C-peptide is a short 31 amino acid peptide connecting or linking A and B-chains of proinsulin and preproinsulin, which is secreted by functioning beta or insulin secreting cells. As discussed previously by Kroon et al. (2008) supra and others, human C-peptide measurements are appropriate for assessing the release of de novo-generated insulin by the implanted cells. […] Human C-peptide was detected in the serum by at least 8 weeks post-implant. With additional weeks of implant and fasting, glucose-stimulated C-peptide levels increased with the peak levels of C-peptide shifting from 60 minutes to 30 minutes post-glucose administration, which is indicative of a more rapid response to glucose challenge as the insulin cells mature.

[2] = system: PEC derived from hESC; assay: Flow cytometry analysis of PEC derived from hESC and treated with heregulin and/or FGF2; type: cell-based, human
Excerpt: Table 9 provides a summary of the flow cytometry analysis of PEC cells treated with Hrg1β and FGF2 at stage 3 and/or 4. The endocrine cells are denoted as CHGA positive (or CHGA+) cells and the non-endocrine cells are denoted as CHGA negative (or CHGA−) cells. The endocrine (CHGA+) and non-endocrine cells (CHGA−) may stain positive for other markers, e.g., positive for PDX1 and/or NKX6.1.

[3] = system: hES-derived cell aggregates; assay: Cell aggregate size of hES-derived cell aggregates in suspension culture; type: cell-based, human
Description: Preliminary studies were performed using Heregulin and FGF. In certain of these studies, Rho-kinase inhibitor, Y-27632, was included.

[4] = system: iPS-derived cell cultures (iPEC); assay: Flow cytometry analysis of iPEC populations from heregulin treated iPS-derived cell cultures; type: cell-based, human; conditions: hIPSC, 30 ng/mL heregulin at stages 3 and 4
Excerpt: (§2) Changes to the standard method as set forth in Table 7 include, but are not limited to: optimization of the number of times any iPSC is passaged; modulating levels of BMP signaling; modulating iPSC suspension aggregation parameters during expansion and differentiation (e.g. shear force, rotation speed and the like); optimization of the concentrations, time of use and duration of use of growth factors, such as Wnt, Activin and rho-kinase inhibitors; and treatment with other growth factors at various stages 1 through 4 of the differentiation protocol as candidates for improving cell mass, proliferation, differentiation, survival and the like (e.g. ERBB ligands). These many iterative experiments were tested alone, or in combination, to determine how differentiation methods for iPSC during stages 1-4 could be optimized. […] The baseline conditions were similar to those described in Examples 1, 2 and 5 as well as Table 7 herein, except that heregulin was added at stages 3 and 4. Although 30 ng/mL of Hrg1β was used, concentrations ranging from 10 ng/mL to 50 ng/mL, or even greater than 50 ng/mL are suitable. Also, addition of a rho-kinase inhibitor, Y-27632, was maintained in the differentiation cultures as described in Example 2.
(§3) To determine the effect of the addition of heregulin or heregulin and a rho-kinase inhibitor on stage 3 and 4 cell subpopulations, iPEC populations were analyzed by flow cytometry. Table 11 provides a summary of the flow cytometry analysis of various iPEC populations using the formulations set forth in Table 10, as well as such formulations having been modified by increasing the Activin concentration to 200 ng/mL. […] Table 11 also discloses data regarding in vivo function of the cells produced in each experiment.

[5] = system: mice implanted with PEC grafts (CyT203 hESC); assay: Glucose stimulated insulin secretion (GSIS): human C-peptide in serum of mice implanted with PEC grafts from hESC; type: in vivo; conditions: experiment 2354; PEC produced from hESC; grafts resulting from heregulin treatment
Excerpt: as §1
The amount of human C-peptide released into the serum is indicative of the amount of insulin released. […] Human C-peptide was detected in the serum by at least 8 weeks post-implant. […]

[6] = system: PEC (hESC); assay: Flow cytometry analysis of PEC from heregulin treated hESC-derived cell cultures (E2354); type: cell-based, human
Excerpt: as §2, §3
Under certain conditions, the ratio of subpopulations of cells in the PEC (hESC, E2354) and iPEC (E2314, E2344, E2347) populations were altered. For example, sometimes, the percentage of endocrine (CHGA+) cells decreased and the percentage of non-endocrine cells (CHGA−/NKX6.1+/PDX1+) increased as compared to the baseline (no heregulin) conditions.

[7] = system: iPSC; assay: Cell mass of iPSC-derived differentiation cultures for implantation; type: cell-based, human; conditions: heregulin at stages 3 and 4 without a rho-kinase inhibitor; implantation impossible
Excerpt: As such, the provision of heregulin alone or a rho-kinase inhibitor alone is not substantially similar to the sum effect of the two combined. That is, alone neither results in robust glucose responsiveness in vivo but combined they produce glucose responsiveness similar to that of hES-derived cells. Accordingly, it appeared that the provision of both heregulin and a rho-kinase inhibitor is synergistic since their combined effect is greater than the sum of the effect of each separately.

C[C@@H](N)[C@H]1CC[C@H](C(=O)Nc2ccncc2)CC1 [rho-kinase inhibitor, Y-27632, reference compound]
in vivo function of graft ([1]; rho-kinase inhibitor alone (baseline conditions, no heregulin)): poor in vivo function

Fibroblast growth factor 2 [FGF2]
CHGA− NKX6.1− PDX1− (Triple Negative/ Residual Cells) ([2]; 50 ng/mL of FGF2 for 2 days at stage 3, control 13.1): 9.15%
CHGA+ (Endocrine) ([2]; 50 ng/mL of FGF2 for 2 days at stage 3, control 32.9): 11.9%
CHGA− NKX6.1+ PDX1+ (Non-endocrine) ([2]; 50 ng/mL of FGF2 for 2 days at stage 3, control 54.01): 79%
CHGA− NKX6.1− PDX1− (Triple Negative/ Residual Cells) ([2]; 50 ng/mL of FGF2 for 3 days at stage 3, control 13.1): 22.7%
CHGA+ (Endocrine) ([2]; 50 ng/mL of FGF2 for 3 days at stage 3, control 32.9): 0.33%
CHGA− NKX6.1+ PDX1+ (Non-endocrine) ([2]; 50 ng/mL of FGF2 for 3 days at stage 3, control 54.01): 76.9%
cell aggregate size ([3]; 3 days of 50 ng/mL FGF2 at stage 3 compared to 2 days): increase in cell aggregate size

Heregulin-1β
CHGA− NKX6.1− PDX1− (Triple Negative/ Residual Cells) ([4]; Exp. E2314, baseline 3.20): 9.88%
CHGA− NKX6.1− PDX1+ (PDX1 only) ([4]; Exp. E2314, baseline 11.32): 16.83%
CHGA+ (Endocrine) ([4]; Exp. E2314, baseline 19.83): 9.00%
CHGA− NKX6.1+ PDX1+ (Non-endocrine) ([4]; Exp. E2314, baseline 65.59): 64.21%
CHGA− NKX6.1− PDX1− (Triple Negative/ Residual Cells) ([4]; Exp. E2344, baseline 1.80): 2.75%
CHGA− NKX6.1− PDX1+ (PDX1 only) ([4]; Exp. E2344, baseline 5.45): 11.23%
CHGA− NKX6.1+ PDX1+ (Non-endocrine) ([4]; Exp. E2344, baseline 36.15): 49.00%
CHGA+ (Endocrine) ([4]; Exp. E2344, baseline 56.51): 36.13%
CHGA− NKX6.1− PDX1− (Triple Negative/ Residual Cells) ([4]; Exp. E2347, baseline 2.11): 1.68%
CHGA− NKX6.1− PDX1+ (PDX1 only) ([4]; Exp. E2347, baseline 10.97): 12.30%
CHGA− NKX6.1+ PDX1+ (Non-endocrine) ([4]; Exp. E2347, baseline 37.16): 68.91%
CHGA+ (Endocrine) ([4]; Exp. E2347, baseline 49.78): 17.27%
CHGA− NKX6.1− PDX1− (Triple Negative/ Residual Cells) ([4]; Exp. E2380, baseline 9.10): 7.03%
CHGA− NKX6.1− PDX1+ (PDX1 only) ([4]; Exp. E2380, baseline 12.08): 17.24%
CHGA− NKX6.1+ PDX1+ (Non-endocrine) ([4]; Exp. E2380, baseline 38.18): 29.72%
CHGA+ (Endocrine) ([4]; Exp. E2380, baseline 41.16): increased rather than decreased
CHGA+ (Endocrine) ([4]; Exp. E2380, baseline 41.16, listed as Hg): 45.91%
CHGA− NKX6.1− PDX1− (Triple Negative/ Residual Cells) ([2]; 10 ng/mL Heregulin-1β at stage 3, control without Hrg and FGF2 13.1, listed as Hrg): 8.55%
CHGA− NKX6.1− PDX1− (Triple Negative/ Residual Cells) ([2]; 10 ng/mL Heregulin-1β at stage 3, control without Hrg and FGF2 13.1, listed as Hrg1β): did decrease
CHGA− NKX6.1+ PDX1+ (Non-endocrine) ([2]; 10 ng/mL Heregulin-1β at stage 3, control without Hrg and FGF2 54.01): 61.2%
CHGA+ (Endocrine) ([2]; 10 ng/mL Heregulin-1β at stage 3, share of PEC population, control without Hrg and FGF2 32.9, listed as Hrg): 30.3%
CHGA+ (Endocrine) ([2]; 10 ng/mL Heregulin-1β at stage 3, share of PEC population, control without Hrg and FGF2 32.9, listed as Hrg1β): not significantly affected
CHGA− NKX6.1− PDX1− (Triple Negative/ Residual Cells) ([2]; 50 ng/mL Heregulin-1β at stage 3, control 13.1, listed as Hrg): 6.9%
CHGA− NKX6.1− PDX1− (Triple Negative/ Residual Cells) ([2]; 50 ng/mL Heregulin-1β at stage 3, control 13.1, listed as Hrg1β): did decrease and more so
CHGA+ (Endocrine) ([2]; 50 ng/mL Heregulin-1β at stage 3, control 32.9): 28.9%
CHGA− NKX6.1+ PDX1+ (Non-endocrine) ([2]; 50 ng/mL Heregulin-1β at stage 3, control 54.01): 64.2%
serum C-peptide compared to baseline controls [5]: does not show higher levels of serum C-peptide
CHGA− NKX6.1− PDX1− (Triple Negative/ Residual Cells) ([6]; Exp. E2354, 30 ng/mL heregulin at stages 3 and 4, baseline 1.75): 1.86%
CHGA− NKX6.1− PDX1+ (PDX1 only) ([6]; Exp. E2354, 30 ng/mL heregulin at stages 3 and 4, baseline 2.89): 8.10%
CHGA+ (Endocrine) ([6]; Exp. E2354, 30 ng/mL heregulin at stages 3 and 4, baseline 33.39): 16.18%
CHGA− NKX6.1+ PDX1+ (Non-endocrine) ([6]; Exp. E2354, 30 ng/mL heregulin at stages 3 and 4, baseline 62.01): 73.00%
cell mass [7]: visibly poor cell mass
increase of serum human C-peptide compared to grafts prepared without heregulin (baseline) ([1]; experiment 2380, 60 minutes post glucose administration): ~5 fold
serum human C-peptide ([1]; experiment 2380, iPEC grafts resulting from heregulin treatment, 60 minutes post glucose administration, baseline 200 pM): 933 pM
serum human C-peptide post glucose administration compared to baseline controls ([1]; grafts resulting from heregulin treatment, in general (FIGS. 7A-7C)): higher levels of serum human C-peptide
cell aggregate size ([3]; 10 ng/mL for one day at stage 1, compared to suspension culture without Heregulin-1β, preliminary studies): increased the cell aggregate size
aggregate disk size ([3]; Hrg1β increased from 10 ng/mL to 50 ng/mL at stage 3): aggregate disk size increased
